Laboratory results as given in patent US12076311B2, “Therapeutic compositions comprising deuterated or partially deuterated N,N-dimethyltryptamine compounds” (CYBIN UK LTD, priority 2019, dated 2024).

How the values were obtained:
[1] = test system: Human (mixed gender) hepatocytes pooled from 10 donors; assay: In vitro intrinsic clearance in human hepatocytes; assay type: in vitro ADME; conditions: human hepatocytes 0.545 million cells/mL, 5 μM, up to 60 minutes at 37° C.; weighted by ratio of D0, D1 and D2
Experimental: To use human hepatocytes to assess the in vitro intrinsic clearance of deuterated DMT analogue blends relative to DMT.
Human (mixed gender) hepatocytes pooled from 10 donors (0.545 million cells/mL) were used to investigate the in vitro intrinsic clearance of DMT and 6 deuterated analogues.
A concentration of 5 μM was used for all test compounds, as well as sumatriptan, serotonin, benzylamine controls. This concentration was chosen in order to maximise the signal-to-noise ratio, while remaining under the Michaelis constant (Km) for the monoamine oxidase enzyme (MAO). Diltiazem and diclofenac controls were used at a laboratory-validated concentration of 1 μM.
Test compounds were mixed with the hepatocyte suspension within a 96-well plate and incubated for up to 60 minutes at 37° C. […] At 7 time points, small aliquots were withdrawn, and the test compound/blend concentration therein was measured by LC-MS/MS. The time points measured were 2, 4, 8, 15, 30, 45 and 60 minutes. […]
The resulting concentration-time profile was then used to calculate intrinsic clearance (CLint) and half-life (t½). […] Intrinsic clearance is calculated from the slope/elimination rate constant and the formula is CLint=(−1000*slope)/cell denisty in 1E6 cells/ml, to give units of microlitre/min/million cells.
Intrinsic clearance and half-life values were calculated for DMT and the 6 deuterated mixtures described above.

[2] = short-acting psychedelic; cited from earlier work

| SMILES | Intrinsic clearance [1] | duration of action [2] |
| --- | --- | --- |
| CN(C)CCc1c[nH]c2ccccc12 [DMT, N,N-dimethyltryptamine] | 13.77 μL/min/million cells | – |
| CN(C)CCc1c[nH]c2ccccc12 [N,N-dimethyltryptamine (DMT)] | – | under 20 minutes |
